Results as given in PubChem BioAssay AID1963872 (Molecular Pharmacology Branch, DTP, NCI, 2024).

System: KRAS patient-derived spheroids with HUVEC/MSC, viability
Test: Anticancer human tumor 519858-162-T-J1-PDC patient-derived colon adenocarcinoma cell line growth inhibition [KRAS2]
Conditions: for IC50: curve of first compound; for viability, T/C: stronger effect = lower value
Procedure, shortened: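 Combination screen of spheroid viability in tumor-cell co-cultures with endothelial (HUVEC) and mesenchymal stem cell stroma. Each agent was tested in half-log dilutions, topping at clinical Cmax or at 10 microM without a known Cmax.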

[1] = second compound 0.1 µM, first compound 0.0316 µM
[2] = second compound 0.1 µM, first compound 0.1 µM
[3] = second compound 0.1 µM, first compound 0.316 µM
[4] = second compound 0.1 µM, first compound 1 µM
[5] = second compound 0.1 µM, first compound 3.16 µM
[6] = second compound 0.1 µM, first compound 10 µM
[7] = second compound 0.316 µM, first compound 0.0316 µM
[8] = second compound 0.316 µM, first compound 0.1 µM
[9] = second compound 0.316 µM, first compound 0.316 µM
[10] = second compound 0.316 µM, first compound 1 µM
[11] = second compound 0.316 µM, first compound 3.16 µM
[12] = second compound 0.316 µM, first compound 10 µM
[13] = second compound 1 µM, first compound 0.0316 µM
[14] = second compound 1 µM, first compound 0.1 µM
[15] = second compound 1 µM, first compound 0.316 µM
[16] = second compound 1 µM, first compound 1 µM
[17] = second compound 1 µM, first compound 3.16 µM
[18] = second compound 1 µM, first compound 10 µM
[19] = second compound 3.16 µM, first compound 0.0316 µM
[20] = second compound 3.16 µM, first compound 0.1 µM
[21] = second compound 3.16 µM, first compound 0.316 µM
[22] = second compound 3.16 µM, first compound 1 µM
[23] = second compound 3.16 µM, first compound 3.16 µM
[24] = second compound 3.16 µM, first compound 10 µM
[25] = second compound 10 µM, first compound 0.0316 µM
[26] = second compound 10 µM, first compound 0.1 µM
[27] = second compound 10 µM, first compound 0.316 µM
[28] = second compound 10 µM, first compound 1 µM
[29] = second compound 10 µM, first compound 3.16 µM
[30] = second compound 10 µM, first compound 10 µM
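Also: compound exposure lasted seven days before readout.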
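For viability, T/C in this document: 100% = DMSO vehicle control viability.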

With O=C(c1cc(Cc2n[nH]c(=O)c3ccccc23)ccc1F)N1CCN(C(=O)C2CC2)CC1 + COc1cc2nc(C)nc(NC(C)c3cc(N)cc(C(F)(F)F)c3)c2cc1OC1CCOC1 as the molecule, how does the IC50 (second compound 0.1 µM) read?
Its IC50 is over 10 µM.

And the IC50 (second compound 0.316 µM)?
Its IC50 is over 10 µM.

What about the IC50 (second compound 1 µM) of the same molecule?
The IC50 was over 10 µM.

What about the IC50 (second compound 3.16 µM) of the same molecule?
Its IC50 is over 10 µM.

What about the IC50 (second compound 10 µM) of the same molecule?
The IC50 was over 10 µM.

What about the viability, T/C [1] of the same molecule?
The viability, T/C was 68.1%.

What about the viability, T/C [2] of the same molecule?
Its viability, T/C is 98.2%.

What about the viability, T/C [3] of the same molecule?
The viability, T/C was 98.6%.

And the viability, T/C [4]?
Its viability, T/C is 111%.

What about the viability, T/C [5] of the same molecule?
The viability, T/C was 91%.

And the viability, T/C [6]?
The viability, T/C was 97.4%.

What about the viability, T/C [7] of the same molecule?
The viability, T/C was 75.1%.

What about the viability, T/C [8] of the same molecule?
The viability, T/C was 90%.

What about the viability, T/C [9] of the same molecule?
Its viability, T/C is 89.9%.

What about the viability, T/C [10] of the same molecule?
Its viability, T/C is 80.2%.

And the viability, T/C [11]?
The viability, T/C was 102%.

And the viability, T/C [12]?
Its viability, T/C is 99.1%.

And the viability, T/C [13]?
Its viability, T/C is 73.3%.

What about the viability, T/C [14] of the same molecule?
The viability, T/C was 108%.

What about the viability, T/C [15] of the same molecule?
The viability, T/C was 89.9%.

What about the viability, T/C [16] of the same molecule?
The viability, T/C was 83.7%.

And the viability, T/C [17]?
The viability, T/C was 112%.

What about the viability, T/C [18] of the same molecule?
The viability, T/C was 72.6%.

What about the viability, T/C [19] of the same molecule?
The viability, T/C was 78.1%.

What about the viability, T/C [20] of the same molecule?
The viability, T/C was 89.7%.

And the viability, T/C [21]?
Its viability, T/C is 75.6%.

What about the viability, T/C [22] of the same molecule?
Its viability, T/C is 80.8%.

And the viability, T/C [23]?
The viability, T/C was 79.6%.

What about the viability, T/C [24] of the same molecule?
Its viability, T/C is 66.8%.

What about the viability, T/C [25] of the same molecule?
Its viability, T/C is 117%.

And the viability, T/C [26]?
Its viability, T/C is 85.1%.

What about the viability, T/C [27] of the same molecule?
Its viability, T/C is 96.2%.

What about the viability, T/C [28] of the same molecule?
Its viability, T/C is 53.4%.

What about the viability, T/C [29] of the same molecule?
The viability, T/C was 67.1%.

What about the viability, T/C [30] of the same molecule?
Its viability, T/C is 109%.

With O=C(c1cc(Cc2n[nH]c(=O)c3ccccc23)ccc1F)N1CCN(C(=O)C2CC2)CC1 + C=CC(=O)N1CCN(c2nc(=O)n(-c3c(C)ccnc3C(C)C)c3nc(-c4c(O)cccc4F)c(F)cc23)C(C)C1 as the molecule, how does the IC50 (second compound 0.1 µM) read?
The IC50 was over 10 µM.

What about the IC50 (second compound 0.316 µM) of the same molecule?
The IC50 was over 10 µM.

What about the IC50 (second compound 1 µM) of the same molecule?
The IC50 was over 10 µM.

And the IC50 (second compound 3.16 µM)?
The IC50 was over 10 µM.

What about the IC50 (second compound 10 µM) of the same molecule?
Its IC50 is over 10 µM.

And the viability, T/C [1]?
The viability, T/C was 71.4%.

And the viability, T/C [2]?
The viability, T/C was 111%.

And the viability, T/C [3]?
Its viability, T/C is 96.3%.

And the viability, T/C [4]?
Its viability, T/C is 120%.

And the viability, T/C [5]?
Its viability, T/C is 123%.

What about the viability, T/C [6] of the same molecule?
The viability, T/C was 110%.

And the viability, T/C [7]?
The viability, T/C was 89.2%.

And the viability, T/C [8]?
The viability, T/C was 91.2%.

And the viability, T/C [9]?
Its viability, T/C is 95.1%.

And the viability, T/C [10]?
The viability, T/C was 97.4%.

And the viability, T/C [11]?
Its viability, T/C is 91.9%.

What about the viability, T/C [12] of the same molecule?
The viability, T/C was 111%.

What about the viability, T/C [13] of the same molecule?
Its viability, T/C is 73.9%.

What about the viability, T/C [14] of the same molecule?
The viability, T/C was 98.4%.

What about the viability, T/C [15] of the same molecule?
Its viability, T/C is 80.8%.

What about the viability, T/C [16] of the same molecule?
Its viability, T/C is 100%.

And the viability, T/C [17]?
The viability, T/C was 89.3%.

What about the viability, T/C [18] of the same molecule?
The viability, T/C was 108%.

And the viability, T/C [19]?
Its viability, T/C is 88.8%.

And the viability, T/C [20]?
Its viability, T/C is 92.5%.

What about the viability, T/C [21] of the same molecule?
The viability, T/C was 84%.

And the viability, T/C [22]?
Its viability, T/C is 95%.

And the viability, T/C [23]?
The viability, T/C was 96.8%.

What about the viability, T/C [24] of the same molecule?
Its viability, T/C is 120%.

And the viability, T/C [25]?
The viability, T/C was 106%.

What about the viability, T/C [26] of the same molecule?
Its viability, T/C is 106%.

What about the viability, T/C [27] of the same molecule?
The viability, T/C was 72.5%.

And the viability, T/C [28]?
Its viability, T/C is 83.8%.

And the viability, T/C [29]?
The viability, T/C was 86.1%.

And the viability, T/C [30]?
Its viability, T/C is 72.7%.

How did the IC50 (second compound 0.1 µM) turn out when CC(=O)Nc1cccc(-n2c(=O)n(C3CC3)c(=O)c3c(Nc4ccc(I)cc4F)n(C)c(=O)c(C)c32)c1 + CNCc1ccccc1-c1csc(C(C)Nc2nc(C)nc3cc(OC)c(OC)cc23)c1 was run?
The IC50 was 0.00536 µM.

What about the IC50 (second compound 0.316 µM) of the same molecule?
Its IC50 is 0.00138 µM.

What about the IC50 (second compound 1 µM) of the same molecule?
The IC50 was 0.000356 µM.

And the IC50 (second compound 3.16 µM)?
Its IC50 is under 0.0001 µM.

And the IC50 (second compound 10 µM)?
The IC50 was under 0.0001 µM.

What about the viability, T/C (second compound 0.1 µM, first compound 0.0001 µM) of the same molecule?
The viability, T/C was 70.2%.

And the viability, T/C (second compound 0.1 µM, first compound 0.000316 µM)?
The viability, T/C was 73.4%.

What about the viability, T/C (second compound 0.1 µM, first compound 0.001 µM) of the same molecule?
The viability, T/C was 60.1%.

What about the viability, T/C (second compound 0.1 µM, first compound 0.00316 µM) of the same molecule?
Its viability, T/C is 67.2%.

What about the viability, T/C (second compound 0.1 µM, first compound 0.01 µM) of the same molecule?
Its viability, T/C is 29.7%.

What about the viability, T/C [1] of the same molecule?
The viability, T/C was 13.9%.

What about the viability, T/C (second compound 0.316 µM, first compound 0.0001 µM) of the same molecule?
The viability, T/C was 50.7%.

And the viability, T/C (second compound 0.316 µM, first compound 0.000316 µM)?
The viability, T/C was 79.1%.

What about the viability, T/C (second compound 0.316 µM, first compound 0.001 µM) of the same molecule?
Its viability, T/C is 47.9%.

And the viability, T/C (second compound 0.316 µM, first compound 0.00316 µM)?
The viability, T/C was 36.4%.

What about the viability, T/C (second compound 0.316 µM, first compound 0.01 µM) of the same molecule?
The viability, T/C was 30.9%.

What about the viability, T/C [7] of the same molecule?
Its viability, T/C is 12.2%.

What about the viability, T/C (second compound 1 µM, first compound 0.0001 µM) of the same molecule?
Its viability, T/C is 63.3%.

What about the viability, T/C (second compound 1 µM, first compound 0.000316 µM) of the same molecule?
The viability, T/C was 50.7%.

And the viability, T/C (second compound 1 µM, first compound 0.001 µM)?
The viability, T/C was 37.9%.

And the viability, T/C (second compound 1 µM, first compound 0.00316 µM)?
The viability, T/C was 30.6%.

What about the viability, T/C (second compound 1 µM, first compound 0.01 µM) of the same molecule?
Its viability, T/C is 16.5%.

What about the viability, T/C [13] of the same molecule?
The viability, T/C was 6.33%.

And the viability, T/C (second compound 3.16 µM, first compound 0.0001 µM)?
Its viability, T/C is 41%.

What about the viability, T/C (second compound 3.16 µM, first compound 0.000316 µM) of the same molecule?
The viability, T/C was 30.4%.

And the viability, T/C (second compound 3.16 µM, first compound 0.001 µM)?
Its viability, T/C is 17.7%.

And the viability, T/C (second compound 3.16 µM, first compound 0.00316 µM)?
Its viability, T/C is 3.54%.

What about the viability, T/C (second compound 3.16 µM, first compound 0.01 µM) of the same molecule?
Its viability, T/C is 1.47%.

And the viability, T/C [19]?
Its viability, T/C is 1.15%.

What about the viability, T/C (second compound 10 µM, first compound 0.0001 µM) of the same molecule?
The viability, T/C was 0.28%.

What about the viability, T/C (second compound 10 µM, first compound 0.000316 µM) of the same molecule?
The viability, T/C was 0.38%.

And the viability, T/C (second compound 10 µM, first compound 0.001 µM)?
Its viability, T/C is 0.25%.

And the viability, T/C (second compound 10 µM, first compound 0.00316 µM)?
Its viability, T/C is 0.25%.

And the viability, T/C (second compound 10 µM, first compound 0.01 µM)?
Its viability, T/C is 0.22%.

What about the viability, T/C [25] of the same molecule?
Its viability, T/C is 0.31%.
